Measured values taken from ChEMBL document CHEMBL1159196, “Lignans interfering with 5 alpha-dihydrotestosterone binding to human sex hormone-binding globulin” (J Nat Prod, 1998).

Columns and labels:
[1] = target: T1, Sex hormone-binding globulin (Homo sapiens, UniProt P04278); assay: Displacement of [3H]DHT from human serum SHBG
T1 sequence (P04278 whole entry): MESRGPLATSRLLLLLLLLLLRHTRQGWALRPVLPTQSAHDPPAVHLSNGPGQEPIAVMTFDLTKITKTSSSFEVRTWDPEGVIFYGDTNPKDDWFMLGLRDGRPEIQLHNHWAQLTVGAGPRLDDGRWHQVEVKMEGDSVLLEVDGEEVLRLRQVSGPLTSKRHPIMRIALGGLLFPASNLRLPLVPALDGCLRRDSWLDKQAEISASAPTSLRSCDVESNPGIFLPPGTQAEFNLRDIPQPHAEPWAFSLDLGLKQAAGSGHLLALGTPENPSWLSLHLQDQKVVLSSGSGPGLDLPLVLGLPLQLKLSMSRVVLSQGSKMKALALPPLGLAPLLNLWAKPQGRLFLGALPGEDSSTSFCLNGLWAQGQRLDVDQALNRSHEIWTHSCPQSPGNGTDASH

[2] = target: T2, Sex hormone-binding globulin (Homo sapiens) (UniProt P04278); assay: Binding affinity to SHBG at 4 degC
T2 sequence (whole entry): T1 sequence (P04278 whole entry)

[3] = target: T2, Sex hormone-binding globulin (Homo sapiens); assay: Binding affinity to human serum SHBG at 4 degC by competitive inhibition assay
[4] = target: T2, Sex hormone-binding globulin (Homo sapiens); assay: Binding affinity to SHBG

Compound `COc1cc(C[C@H]2COC(=O)[C@@H]2Cc2ccc(O)c(OC)c2)ccc1O` [MATAIRESINOL] has an IC50 [1] of 52 µM.

`COc1cc(C[C@H]2COC[C@@H]2Cc2ccc(O)c(OC)c2)ccc1O` gave a Ka [2] of 0.98 ×10⁹ /M and a Ka [3] of 3.2 ×10⁶ /M.

With `O=C1OCC(Cc2cccc(O)c2)C1Cc1cccc(O)c1` (racemic) the IC50 [1] was 620 µM.

Compound `C[C@]12CC[C@@H]3c4ccc(O)cc4CC[C@H]3[C@@H]1CC[C@@H]2O` has a Ka [4] of 5 ×10⁸ /M.

For `C[C@]12CC[C@H]3[C@@H](CCC4=CC(=O)CC[C@@]43C)[C@@H]1CC[C@@H]2O`, the Ka [4] was 1 ×10⁹ /M.

`C[C@]12CCC(=O)C[C@@H]1CC[C@@H]1[C@@H]2CC[C@]2(C)[C@@H](O)CC[C@@H]12` gave a Ka [4] of 2 ×10⁹ /M.

`COc1cc(C[C@@H](CO)[C@H](CO)Cc2ccc(O)c(OC)c2)ccc1O` [(+)-SECOISOLARICIRESINOL] gave an IC50 [1] of 230 µM.
